Experimental findings from article PMC3170879 (Chemmedchem, 2011) are described below.

This experiment has as its target T1, steroid sulfatase (STS) (Homo sapiens, UniProt P08842).
T1 sequence (P08842 22-583): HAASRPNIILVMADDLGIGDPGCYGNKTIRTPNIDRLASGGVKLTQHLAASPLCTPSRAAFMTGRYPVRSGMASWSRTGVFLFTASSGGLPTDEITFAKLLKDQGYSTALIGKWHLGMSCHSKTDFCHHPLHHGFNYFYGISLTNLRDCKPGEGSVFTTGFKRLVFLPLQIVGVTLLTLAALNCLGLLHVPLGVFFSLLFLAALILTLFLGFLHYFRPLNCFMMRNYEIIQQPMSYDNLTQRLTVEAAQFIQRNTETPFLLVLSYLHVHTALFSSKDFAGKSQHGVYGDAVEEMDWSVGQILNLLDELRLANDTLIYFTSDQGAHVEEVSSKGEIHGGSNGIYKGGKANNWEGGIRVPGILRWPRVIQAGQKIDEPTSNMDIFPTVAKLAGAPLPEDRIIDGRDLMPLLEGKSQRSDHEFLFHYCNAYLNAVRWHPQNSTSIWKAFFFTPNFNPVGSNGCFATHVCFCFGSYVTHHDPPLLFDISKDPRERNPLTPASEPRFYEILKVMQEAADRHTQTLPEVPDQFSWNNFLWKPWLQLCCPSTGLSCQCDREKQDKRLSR
The experiment in a line: radiometric sulfatase assay, intact JEG-3 monolayer. Format: cell-based. The conditions noted are these: read-out: [drawing 5]; [6,7-3H]oestrone sulfate substrate, 1 h.

For `CN(C)S(=O)(=O)Oc1ccc(C(c2ccc(C#N)cc2)n2cncn2)cc1Br` (racemic) [compound 42, 2-Bromo-4-((4-cyanophenyl)(1H-1,2,4-triazol-1-yl)methyl)phenyl dimethylsulfamate], the IC50 was greater than 10 µM.
